According to ChEMBL document CHEMBL1212787, “Antimicrobial peptide hLF1-11 directs granulocyte-macrophage colony-stimulating factor-driven monocyte differentiation toward macrophages with enhanced recognition and clearance of pathogens” (2010):
Calls of active or inactive are those of the source. No cut-off for these calls is given here.

Key:
Macrophage [1] = test: Modulation of GM-CSF-driven human macrophage differentiation assessed as induction of heat killed Candida albicans-stimulated IL-12p40 production in at 10 ug/ml after 20 hrs; format: functional, cell-based
Macrophage [2] = test: Modulation of GM-CSF-driven human macrophage differentiation assessed as induction of LTA-stimulated IL-10 production in at 1 to 100 ug/ml after 20 hrs; format: functional, cell-based
[3] = Modulation of GM-CSF-driven human macrophage differentiation assessed as induction of TLR4 expression in at 100 ug/ml after 7 days by flow cytometry; format: functional, cell-based
Candida albicans [4] = test: Antimicrobial activity against Candida albicans infected in human macrophage assessed as fungus phagocytosing compound-treated macrophages at 15 mins by FACS analysis (reference value: 13%); format: functional
Macrophage [5] = test: Modulation of GM-CSF-driven human macrophage differentiation assessed as induction of LPS-stimulated IL-10 production in at 1 to 100 ug/ml after 20 hrs; format: functional, cell-based
Candida albicans [6] = test: Antimicrobial activity against Candida albicans infected in human macrophage assessed as induction of phagocytosis of fungus after 10 mins by flow cytometry; format: functional, organism-based
Macrophage [7] = test: Modulation of GM-CSF-driven human macrophage differentiation assessed as induction of CD206 expression at 100 ug/ml after 7 days by flow cytometry; format: functional, cell-based
Staphylococcus aureus [8] = test: Antimicrobial activity against Staphylococcus aureus LUH2141 infected in human macrophage assessed as bacteria phagocytosing macrophages at 120 mins by FACS analysis (reference value: 66%); format: functional
Candida albicans [9] = test: Antimicrobial activity against Candida albicans infected in human macrophage assessed as induction of phagocytosis of fungus after 60 mins by flow cytometry; format: functional, organism-based
[10] = Modulation of GM-CSF-driven human macrophage differentiation assessed as induction of dectin-1 expression at 100 ug/ml after 7 days by flow cytometry; format: functional, cell-based
Macrophage [11] = test: Modulation of GM-CSF-driven human macrophage differentiation assessed as induction of 10 ng/ml LTA-stimulatedMCP1 production at 100 ug/ml after 20 hrs; format: functional, cell-based
Macrophage [12] = test: Modulation of GM-CSF-driven human macrophage differentiation assessed as induction of CD14 expression in at 100 ug/ml after 7 days by flow cytometry; format: functional, cell-based
Macrophage [13] = test: Modulation of GM-CSF-driven human macrophage differentiation assessed as induction of LTA-stimulated TNFalpha production in at 1 to 100 ug/ml after 20 hrs; format: functional, cell-based
Candida albicans [14] = test: Antimicrobial activity against Candida albicans infected in human macrophage assessed as fungus phagocytosing compound-treated macrophages at 60 mins by FACS analysis (reference value: 47%); format: functional
Monocyte [15] = test: Modulation of GM-CSF-driven human monocytes differentiation assessed as induction of LPS-induced IL-10 production after 10 mins; format: functional, cell-based
Staphylococcus aureus [16] = test: Antimicrobial activity against Staphylococcus aureus LUH2141 infected in human macrophage at 120 mins by FACS analysis (reference value: 17%); format: functional, organism-based
Macrophage [17] = test: Modulation of GM-CSF-driven human macrophage differentiation assessed as induction of 1 ng/ml LTA-stimulatedMCP1 production at 100 ug/ml after 20 hrs; format: functional, cell-based
Macrophage [18] = test: Modulation of GM-CSF-driven human macrophage differentiation assessed as induction of 0.1 ng/ml LPS-stimulatedIL-10 production at 100 ug/ml after 20 hrs; format: functional, cell-based
Macrophage [19] = test: Modulation of GM-CSF-driven human macrophage differentiation assessed as induction of heat killed Candida albicans-stimulated TNFalpha production in at 1 to 100 ug/ml after 20 hrs; format: functional, cell-based
Macrophage [20] = test: Modulation of GM-CSF-driven human macrophage differentiation assessed as induction of CD11b expression at 100 ug/ml after 7 days by flow cytometry; format: functional, cell-based
Macrophage [21] = test: Modulation of GM-CSF-driven human macrophage differentiation assessed as induction of LTA-stimulated IL-12p40 production in at 1 to 100 ug/ml after 20 hrs; format: functional, cell-based
Staphylococcus aureus [22] = test: Antimicrobial activity against Staphylococcus aureus LUH2141 infected in human macrophage at 60 mins by FACS analysis (reference value: 9%); format: functional, organism-based
Monocyte [23] = test: Modulation of GM-CSF-driven human monocytes differentiation assessed as induction of LPS-induced IL-10 production after 60 mins; format: functional, cell-based
Macrophage [24] = test: Modulation of GM-CSF-driven human macrophage differentiation assessed as induction of LPS-stimulated IL-12p40 production in at 1 to 100 ug/ml after 20 hrs; format: functional, cell-based
Macrophage [25] = test: Modulation of GM-CSF-driven human macrophage differentiation assessed as induction of heat killed Candida albicans-stimulated IL-10 production in at 1 to 100 ug/ml after 20 hrs; format: functional, cell-based
[26] = Modulation of GM-CSF-driven human macrophage differentiation assessed as induction of TLR2 expression in at 100 ug/ml after 7 days by flow cytometry; format: functional, cell-based
Monocyte [27] = test: Modulation of GM-CSF-driven human monocytes differentiation assessed as induction of LPS-induced IL-10 production after 7 days; format: functional, cell-based
Candida albicans [28] = test: Antimicrobial activity against Candida albicans infected in human macrophage assessed as fungal clearance at 60 mins by FACS analysis (reference value: 56%); format: functional, organism-based
Staphylococcus aureus [29] = test: Antimicrobial activity against Staphylococcus aureus LUH2141 infected in human macrophage assessed as bacteria phagocytosing macrophages at 60 mins by FACS analysis (reference value: 30%); format: functional
Macrophage [30] = test: Modulation of GM-CSF-driven human macrophage differentiation assessed as induction of 1x10^6 CFU heat-killed Candida albicans cells-stimulated TNF-alpha production at 100 ug/ml after 20 hrs; format: functional, cell-based
Macrophage [31] = test: Modulation of GM-CSF-driven human macrophage differentiation assessed as induction of LPS-stimulated TNFalpha production in at 1 to 100 ug/ml after 20 hrs; format: functional, cell-based
Candida albicans [32] = test: Antimicrobial activity against Candida albicans infected in human macrophage assessed as fungus phagocytosing compound-treated macrophages at 30 mins by FACS analysis (reference value: 28%); format: functional

In the case of H-GRRRRSVQWCA-OH, the Activity (Macrophage [1]) is reported as “Active”, the Activity (Macrophage [2]) is reported as “Active” and the Activity [3] is reported as “Active”. For the same substance, the Activity (Candida albicans [4]) was 22%, the Activity (Macrophage [5]) was “Active” and the Activity (Candida albicans [6]) was “inactive”. The Activity (Macrophage [7]) was “Active”, the Activity (Staphylococcus aureus [8]) was 72% and the Activity (Candida albicans [9]) was “Active”. For the same substance, the Activity [10] was “Active”, the Activity (Macrophage [11]) was “Active” and the Activity (Macrophage [12]) was “Active”. For the same substance, the Activity (Macrophage [13]) was “inactive”, the Activity (Candida albicans [14]) was 54% and the Activity (Monocyte [15]) was “inactive”. The Activity (Staphylococcus aureus [16]) was “Active”, the Activity (Macrophage [17]) was “Active” and the Activity (Macrophage [18]) was “Active”. For the same substance, the Activity (Macrophage [19]) was “Active”, the Activity (Macrophage [20]) was “inactive” and the Activity (Macrophage [21]) was “Active”. The Activity (Staphylococcus aureus [22]) was “Active”, the Activity (Monocyte [23]) was “Active” and the Activity (Macrophage [24]) was “inactive”. For the same substance, the Activity (Macrophage [25]) was “Active”, the Activity [26] was “inactive” and the Activity (Monocyte [27]) was “Active”. The Activity (Candida albicans [28]) was “Active”, the Activity (Staphylococcus aureus [29]) was 49% and the Activity (Macrophage [30]) was “Active”. For the same substance, the Activity (Macrophage [31]) was “inactive” and the Activity (Candida albicans [32]) was 41%.
